{"source": "patent US4289776A", "about": "“Xanthine derivatives” (Hoechst Aktiengesellschaft, priority 1973, dated 1981)", "key": {"[1]": {"system": "cerebral blood perfusion", "assay": "Cerebral blood perfusion by fluvography at the cat (i.v.)", "format": "in vivo", "experimental": "(§1) Animal tests were carried out with various oxoalkylxanthine derivatives, in which the toxicity in the mouse, the increase of cerebral and muscular blood perfusion at the cat and the fibrinolytic effect in vitro in the Hanging-Clot-test were measured. Furthermore the broncholytic effect of various compounds was tested.\n(§2) 1. Cerebral and muscular blood perfusion by fluvography\n(§3) These tests were performed at the cat according to K. Popendiker, I. Boksay and V. Bollmann (\"Arzneimittel Forschung\" vol. 21 (1971), page 1160).\n(§4) The values obtained in the mentioned test 1 are given as Δλ and as half-life values in Table 2 and the results of tests 2 to 5 are enumerated in Table 3. In Table 2 Δλ is the change of blood perfusion."}, "[2]": {"system": "human blood", "assay": "Fibrinolytic effect in vitro, Hanging-Clot-test", "format": "biochemical", "conditions": "for Minimum concentration for complete lysis: human blood", "experimental": "This effect was measured by the Hanging-Clot-test according to K. N. von Kaulla (\"Journ. med. Chem.\" vol. 8 (1965), page 164) in using human blood. The incubation time was 24 or 48 hours."}, "[3]": {"system": "bronchospasm against acrotonine", "assay": "Broncholytic effect at the narcotized guinea-pig, bronchospasm by acrotonine (so in the source)", "format": "in vivo", "conditions": "2 min. i.p.", "experimental": "(§5) 2. Broncholytic effect at the narcotized guinea-pig\n(§6) This test was performed according to H. Konsett and R. Rossler (\"Archiv exp. Path. Pharmak.\" vol. 195 (1940), page 71)."}, "[4]": {"system": "isolated trancheal chain", "assay": "Broncholytic effect at the isolated tracheal chain (isoprenaline reaction)", "experimental": "3. Broncholytic effect at the isolated trancheal chain\nThis test was performed according to J. C. Castillo and E. J. de Beer (\"J. Pharm. Ther.\" vol. 90 (1947), page 104)."}, "[5]": {"assay": "Solubility", "format": "physicochemical"}, "[6]": {"system": "muscular blood perfusion", "assay": "Muscular blood perfusion by fluvography at the cat (i.v.)", "format": "in vivo", "experimental": "as §1, §2, §3, §4"}, "[7]": {"system": "bronchospasm against histamine", "assay": "Broncholytic effect at the narcotized guinea-pig, bronchospasm by histamine", "format": "in vivo", "experimental": "as §5, §6"}, "[8]": {"assay": "Toxicity in the mouse (LD50)", "conditions": "in vivo, read-out: Toxicity (LD50)", "experimental": "The toxicity was determined as LD50 --range or as LD50 according to Litchfield and Wilcoxon (\"J. Pharmacol. exp. Ther.\" 97 (1949), page 399) in the mouse."}, "[9]": {"system": "bronchospasm against acetylcholine", "assay": "Broncholytic effect at the narcotized guinea-pig, bronchospasm by acetylcholine", "format": "in vivo", "conditions": "Cavia porcellus, iv, 2 min, 2 min. i.p.", "experimental": "as §5, §6"}}, "note": "Like-named read-outs stand apart in the source and are kept apart here."}
{"smiles": "CCCn1cnc2c1c(=O)n(CCCCC(C)=O)c(=O)n2C", "note": "[Sample 4, 1-(5-Oxohexyl)-3-methyl-7-propyl-xanthine]", "values": [{"measurement": "Cerebral blood perfusion half-life", "setting": "[1]; 1 mg/kg i.v.", "value": 4.0, "unit": "min"}, {"measurement": "Cerebral blood perfusion Δλ (change of blood perfusion)", "setting": "[1]; 1 mg/kg i.v.", "value": "+4.33"}, {"measurement": "Cerebral blood perfusion half-life", "setting": "[1]; 2 mg/kg i.v.", "value": 5.8, "unit": "min"}, {"measurement": "Cerebral blood perfusion Δλ (change of blood perfusion)", "setting": "[1]; 2 mg/kg i.v.", "value": "+6.33"}, {"measurement": "Cerebral blood perfusion half-life", "setting": "[1]; 5 mg/kg i.v.", "value": 14.7, "unit": "min"}, {"measurement": "Cerebral blood perfusion Δλ (change of blood perfusion)", "setting": "[1]; 5 mg/kg i.v.", "value": "+13.00"}, {"measurement": "Cerebral blood perfusion compared with sample 8 (in words)", "setting": "[1]; i.v.", "value": "longer cerebral blood perfusion"}, {"measurement": "Cerebral blood perfusion relative to comparison sample 8", "setting": "[1]; i.v., all dose values, corresponding dosages", "value": "more than 10 times"}, {"measurement": "Fibrinolytic effect relative to comparison sample 8", "setting": "[2]", "value": "two times as strong"}, {"measurement": "Minimum concentration for complete lysis", "setting": "[2]; 24 hours incubation", "value": 50, "unit": "mmol"}, {"measurement": "Minimum concentration for complete lysis", "setting": "[2]; 48 hours incubation (bracket)", "value": 25, "unit": "mmol"}, {"measurement": "Change of the bronchospasm in % against acrotonine", "setting": "[3]; 3 mg/kg i.v.", "value": -83, "unit": "%"}, {"measurement": "Change of the bronchospasm in % against acrotonine", "setting": "[3]; 10 mg/kg i.v.", "value": -93, "unit": "%"}, {"measurement": "Inhibition of isoprenaline reaction in %", "setting": "[4]; concentration 3 × 10^-5", "value": 94, "unit": "%"}, {"measurement": "Inhibition of isoprenaline reaction in %", "setting": "[4]; concentration 3 × 10^-6", "value": 2, "unit": "%"}, {"measurement": "Inhibition of isoprenaline reaction in %", "setting": "[4]; concentration 10^-4", "value": 100, "unit": "%"}, {"measurement": "Inhibition of isoprenaline reaction in %", "setting": "[4]; concentration 10^-5", "value": 20, "unit": "%"}, {"measurement": "Solubility in dimethyl sulphoxide", "setting": "[5]", "value": "over 10%"}, {"measurement": "Solubility in ethanol", "setting": "[5]", "value": "over 10%"}, {"measurement": "solubility", "setting": "[5]; water, 25° C.", "value": "~32", "unit": "mg/mL"}, {"measurement": "Muscular blood perfusion half-life", "setting": "[6]; 1 mg/kg i.v.", "value": 3.70, "unit": "min"}, {"measurement": "Muscular blood perfusion Δλ (change of blood perfusion)", "setting": "[6]; 1 mg/kg i.v.", "value": "+0.13"}, {"measurement": "Muscular blood perfusion half-life", "setting": "[6]; 2 mg/kg i.v.", "value": 0.80, "unit": "min"}, {"measurement": "Muscular blood perfusion Δλ (change of blood perfusion)", "setting": "[6]; 2 mg/kg i.v.", "value": "+0.07"}, {"measurement": "Muscular blood perfusion half-life", "setting": "[6]; 5 mg/kg i.v.", "value": 3.70, "unit": "min"}, {"measurement": "Muscular blood perfusion Δλ (change of blood perfusion)", "setting": "[6]; 5 mg/kg i.v.", "value": "+0.08"}, {"measurement": "Muscular blood perfusion compared with sample 8 (in words)", "setting": "[6]; i.v., corresponding dosages", "value": "stronger muscular blood perfusion"}, {"measurement": "change in vivo at 3 mg/kg", "setting": "[7]; Cavia porcellus, iv, 2 min, 3 mg/kg i.v., 2 min. i.p.", "value": -75, "unit": "%"}, {"measurement": "change in vivo at 10 mg/kg", "setting": "[7]; Cavia porcellus, iv, 2 min, 10 mg/kg i.v., 2 min. i.p.", "value": -86, "unit": "%"}, {"measurement": "Broncholytic effect against histamine compared with sample 8", "setting": "[7]; guinea pig, in vivo", "value": "improved broncholytic effect against histamine"}, {"measurement": "LD50", "setting": "[8]; iv", "value": 107, "unit": "mg/kg"}, {"measurement": "LD50", "setting": "[8]; po, per os", "value": 860, "unit": "mg/kg"}, {"measurement": "change in vivo at 3 mg/kg", "setting": "[9]; 3 mg/kg i.v.", "value": -40, "unit": "%"}, {"measurement": "change in vivo at 10 mg/kg", "setting": "[9]; 10 mg/kg i.v.", "value": -75, "unit": "%"}]}
